# Source: patent publication EP2292225A1 (priority 1997, dated 1998)
# Key:
# [1] = Biodistribution after i.p. injection (HPLC); type: in vivo, mice
# Description: Biodistribution of Cytochalasin B. To determine the biodistribution of cytochalasin B, mice were injected (i.p.) with 50 mg/kg cytochalasin B. Control mice were injected with DMSO/Tween 20/carboxymethyl cellulose ("vehicle"). The mice were sacrificed at 3, 12, 24 and 72 hours after cytochalasin B or vehicle administration. Organs were removed, homogenized, extracted and the amount of cytochalasin B in tissues quantitated by HPLC. About 75% of the cytochalasin B remained in the peritoneal cavity or at the injection site.
# [2] = system: Vascular smooth muscle cells (BO54); assay: Scratch assay of smooth muscle cell migration; type: cell-based, baboon; design: key: - = no toxicity; +1 = minimal; +2 = mild; +3 = moderate; +4 = marked toxicity; settings: Day 1/3/6/8/10 = r6/r8/r10/r12/r14
# Description: Scratch assays to determine the extent of smooth muscle cell migration inhibition by cytochalasin B were performed in accordance with the following protocol: • Vascular smooth muscle cells (BO54) were derived from explants of baboon aortic smooth muscle, as described in Example 10. The cells were grown in flat bottom, six well tissue culture plates, which hold about 5 ml of medium. The vascular smooth muscle cells were plated at 200,000 cells/well and placed at 37°C in a humidified 5% CO2 incubator for 18 hours. The wells were then scratched with a sterile portion of a single edge razor blade that was held by clamp or pliers and was brought aseptically into contact with the bottom of the well at a 90° angle. The cells from a small area along the scratch were removed by a sterile cotton tipped applicator while the blade was in contact with the bottom of the well. After incubation, the presence of cells in the "scratched" area is indicative of cell migration across the scratch line.
# Briefly, a stock solution of cytochalasin B (Sigma Chemical Co.) in dimethyl sulfoxide (DMSO) at 1 mg/ml was prepared. Test dilutions of cytochalasin B or control medium were added. Each experiment included two sets of plates: A set: Test agent exposure for 1, 3, 6, 8 and 10 days only; and B set: Test agent exposure for 1, 3, 6, 8 and 10 days, followed by a seven day recovery time with control medium. Both sets of plates were fixed (10% formalin in PBS) and stained (0.02% crystal violet) at the end of the timed exposures. Test concentrations for cytochalasin B were 1, 0.1 and 0.01 µg/ml, and a negative medium control was included. Fresh medium and drug were supplied 3 times per week.
# In this Table, "M" indicates Migration Grade, wherein - = no migration; +1 = minimal; +2 = mild; +3 = moderate; and +4 = marked (maximum density; limit of cell contact inhibition) migration of vascular smooth muscle cells into the cleared area adjacent to the scratch. In this Table, "T" denotes a morphological Toxicity Grade, wherein - = no toxicity; +1 = minimal; +2 = mild; +3 = moderate; and +4 = marked toxicity. The migration results are expressed as "Grade in the Cleared Area of the Well / Grade in an Undisturbed Region of the Well." The toxicity values represent a grade for all cells in each well.
# [3] = Chronic (seven days) intravenous toxicity study; type: in vivo, Sprauge-Dawley rats; settings: 10080 min
# Description: To determine the toxicity of chronic cytochalasin B administration, cytochalasin B was administered intravenously to Sprauge-Dawley rats for seven days (Table 12). Data regarding food consumption, body weights, hematology parameters, clinical chemistry parameters, coagulation profiles, organ weights, clinical observations, gross necropsy findings and histopathology were collected. […]
# Pig femoral arteries = assay: Biological stenting of balloon traumatized femoral arteries (luminal area morphometry); type: in vivo
# Description: Pig femoral arteries were traumatized as described in Example 7, and then treated with cytochalasin B. About 1.5 to about 2 ml of cytochalasin B at 0.1 µg/ml was infused into portions of the artery that had been separated from other portions by ligatures. The artery was then pressurized for 3 minutes and the fluid aspirated. Approximately 8 to about 30 lambda of the solution is retained in the interstitial space surrounding the cells in the tunica media. Ten femoral arteries (two arteries obtained from each of the 5 pigs that were treated according to the single dose protocol described in Example 7) were then evaluated histologically at 4 days or 3 weeks after cytochalasin B adminstration. The maximal luminal area of each artery was measured and calculated from digitized microscopic images by a BQ System IV computerized morphometric analysis system (R & M Biometrics, Inc., Nashville, TN). This experiment was repeated with 5 additional pigs (two arteries per pig; cytochalasin B dose = 0.1 µg/ml, applied for 3 minutes at 1 atm pressure; same time points). The data obtained from the two experiments were combined.
# The luminal area of the traumatized and cytochalasin B-treated segments of the arteries were also compared to the luminal area of the normal, untreated region of the femoral artery proximal to the test area.
# A cytochalasin B dose response study was then conducted on 10 pigs, following the experimental protocol described in Example 7. Briefly, both femoral arteries in each of 2 pigs were treated with one of the following doses of cytochalasin B: 0.0 µg/ml (i.e., PBS negative control); 0.01 µg/ml; 0.10 µg/ml; 1.0 µg/ml; and 10.0 µg/ml as described above. The agent was delivered by intraluminal catheter at 1 atm pressure for 3 minutes, and the arteries were evaluated 3 weeks later by the morphometric analysis system described above. The ratio of treated artery luminal area to proximal normal artery luminal area was determined as a percent change in treated vs. normal area, or the artery lumen size (diameter or cross sectional area) of treated arteries relative to traumatized but untreated arteries.
# Balloon traumatized swine femoral arteries from control and treated (0.1 µg/ml cytochalasin B) were evaluated at 1, 4, 7, 14, or 21 days after intervention. […] A two way analysis of variance indicated a statistically significant difference (p<.05) in the artery lumen areas over three weeks between the cytochalasin B treated and diluent control groups.
# [4] = system: vascular smooth muscle cells; type: in vivo, pig; settings: 4 days post-trauma
# [5] = system: Vascular smooth muscle (BO54) cells; type: cell-based, baboon
# [6] = Seven day intravenous toxicity study; type: in vivo, beagle dogs; settings: seven consecutive days, 10080 min
structure (smiles),measurement,setting,value
C=C1[C@@H](C)[C@H]2[C@H](Cc3ccccc3)NC(=O)[C@]23OC(=O)/C=C/[C@H](O)CCC[C@@H](C)C/C=C/[C@H]3[C@@H]1O [cytochalasin B],organ with the highest amount,[1]; 50 mg/kg i.p.,highest amount of cytochalasin B was found in the liver
same,remained in the peritoneal cavity or at the injection site,[1]; 50 mg/kg i.p.,About 75%
same,maximum tolerated dose,[1]; may be administered every second day,50 mg/kg
same,morphological Toxicity Grade,"[2]; 7-day Recovery Post Exposure, 0.01 µg/mL",-
same,morphological Toxicity Grade,"[2]; 7-day Recovery Post Exposure, 0.1 µg/mL",-
same,morphological Toxicity Grade,"[2]; Continuous Exposure, 0.1 µg/mL, listed as CY[…]",-
same,morphological Toxicity Grade,"[2]; Continuous Exposure, 1.0 µg/mL, listed as CY[…]",+4
same,dose without any indication of adverse effects or toxicity,[3],up to 600 µg/kg/day
same,morphometry compared to untreated control animals,"left carotid artery; 14 days, periadventitial crystals",no statistical difference from the controls
same,toxicity at the surgical site,"left carotid artery; periadventitial crystals: cytochalasin B 7.8 - 11.8 mg/rat, taxol 3.4 - 6.5 mg/rat",significant toxicity at the surgical site
same,percent change in treated vs. normal luminal area,"Pig femoral arteries; 0.1 µg/ml, 1 atm for 3 minutes, 3 weeks later",~140%
same,artery lumen area over three weeks,"Pig femoral arteries; 0.1 µg/ml, 1, 4, 7, 14, or 21 days after intervention",sustained dilation which changed very little between days 7 and 21
same,luminal area compared to other test agents or controls,"Pig femoral arteries; 0.1 µg/ml, 4 day and 3 week post-treatment",larger luminal area
same,toxicity,Pig femoral arteries; at 10 µg/ml,no evidence of toxicity
same,threshold level of the therapeutic effect,Pig femoral arteries; no effect below this dose,0.1 µg/mL
same,lumen area in the test region compared to the normal control segment of the same artery,"Pig femoral arteries; pig, in vivo",approximately two times as large
same,BRDU labeling grade,[4],4 (4 = > 10/HPF)
same,"minimum effective dose (MED), DNA assay",[5]; 5 minute exposure,10 µg/mL
same,therapeutic range (area under the curve of ^3H-leucine assay greater than ^3H-thymidine assay),"[5]; 24 hour assays, 5% FBS",available therapeutic range
same,"minimum effective dose (MED), DNA synthesis assay",[5]; 24 hour exposure,0.1 µg/mL
same,dose without any indication of adverse effects or toxicity,[6],up to 648 µg/kg/day
